Results taken from US20250122181A1, “BENZIMIDAZOLES AS MODULATORS OF IL-17” (Janssen Pharmaceutica NV, priority 2021, published 2025).

System: IL-17A-induced G-CSF production in human normal keratinocyte (NHK)
Experiment: NHK Assay: IL-17A-induced G-CSF production in human normal keratinocyte
Type: cell-based
Conditions: 24 h, IL-17A 5 ng/mL, simple average if tested more than once
Procedure: IL-17A acts directly on keratinocytes through binding to dimeric receptor IL-17RA/RC and drives the production of a number of inflammatory mediators known to be elevated in psoriasis lesional tissue. IL-17A small molecule inhibitors that block the IL-17A to interact with IL-17R would inhibit the IL-17A signaling in its targeted cells such as keratinocytes. The compound functional activity is evaluated for its impact on IL-17A-induced G-CSF production in human normal keratinocyte (NHK).
Adult normal human keratinocytes are cultured in keratinocyte growth medium (Lonza) in a flask till reaching ˜90% confluence, then cells are transferred to a 384-well plate at density of 3000-4000 cell/well. Recombinant human IL-17A (Gibco PHC9174) is pre-incubated with titrated compound or DMSO for 1 h at rt then added to the cell culture plate. The final concentration of IL-17A is 5 ng/mL and DMSO is 0.2%, in the culture containing 5% FBS. Cells are cultured/treated for 24 h at 37° C. Supernatants are collected and G-CSF production is measured through HTRF technology using Human G-CSF Kit (CisBio). G-CSF concentration was extrapolated from the standard curve and IC50 is determined using GraphPad Prism. Cell viability is also evaluated using CellTiter-Glo kit (Promega) and effect of compound on cell viability is compared to DMSO control.

## Cc1nonc1C(=O)N[C@@H](COC(C)(C)C(F)(F)F)c1nc2cc([C@@H](C3CC3)N3CC(CC(F)(F)F)NC3=O)ccc2[nH]1 (single isomer, unassigned) [Example 88, N—((R)-1-(5-((R)-Cyclopropyl((R*)-2-oxo-4-(2,2,2-trifluoroethyl)imidazolidin-1-yl)methyl)-1H-benzo[d]imidazol-2-yl)-2-((1,1,1-trifluoro-2-methylpropan-2-yl)oxy)ethyl)-4-methyl-1,2,5-oxadiazole-3-carboxamide]
Homo sapiens, Keratinocyte
  IC50: < 50 nM

## C[C@H](O[C@H](C)[C@H](NC(=O)c1nonc1C1CC1)c1nc2cc([C@@H](COC3CC3)N3CC(F)(F)CNC3=O)ccc2[nH]1)C(F)(F)F [Example 67, N-((1R,2R)-1-(5-((S)-2-Cyclopropoxy-1-(5,5-difluoro-2-oxotetrahydropyrimidin-1(2H)-yl)ethyl)-1H-benzo[d]imidazol-2-yl)-2-(((S)-1,1,1-trifluoropropan-2-yl)oxy)propyl)-4-cyclopropyl-1,2,5-oxadiazole-3-carboxamide]
Homo sapiens, Keratinocyte
  IC50: < 50 nM

## C[C@H](O[C@H](C)[C@H](NC(=O)c1nonc1C1CC1)c1nc2cc([C@@H](COC3CC3)N3C[C@@H](C(F)(F)F)NC3=O)ccc2[nH]1)C(F)(F)F [Example 68, N-((1R,2R)-1-(5-((S)-2-Cyclopropoxy-1-((S)-2-oxo-4-(trifluoromethyl)imidazolidin-1-yl)ethyl)-1H-benzo[d]imidazol-2-yl)-2-(((S)-1,1,1-trifluoropropan-2-yl)oxy)propyl)-4-cyclopropyl-1,2,5-oxadiazole-3-carboxamide]
Homo sapiens, Keratinocyte
  IC50: < 50 nM

## [2H]C1([2H])NC(=O)N([C@@H](c2ccc3[nH]c([C@H](COC(C)(C)C(F)(F)F)NC(=O)c4nonc4C)nc3c2)C2CC2)C([2H])([2H])C1(F)F [Example 80, N—((R)-1-(5-((R)-Cyclopropyl(5,5-difluoro-2-oxotetrahydropyrimidin-1(2H)-yl-4,4,6,6-d4)methyl)-1H-benzo[d]imidazol-2-yl)-2-((1,1,1-trifluoro-2-methylpropan-2-yl)oxy)ethyl)-4-methyl-1,2,5-oxadiazole-3-carboxamide]
Homo sapiens, Keratinocyte
  IC50: < 50 nM

## COCC(c1ccc2[nH]c([C@H](COC(C)(C)C(F)(F)F)NC(=O)c3nonc3C)nc2c1)N1C[C@@](C)(C(F)(F)F)NC1=O (single isomer, unassigned) [Example 64, N—((R)-1-(5-((S*)-2-Methoxy-1-((S)-4-methyl-2-oxo-4-(trifluoromethyl)imidazolidin-1-yl)ethyl)-1H-benzo[d]imidazol-2-yl)-2-((1,1,1-trifluoro-2-methylpropan-2-yl)oxy)ethyl)-4-methyl-1,2,5-oxadiazole-3-carboxamide]
  IC50: > 100 nM

## Cc1nonc1C(=O)N[C@H](c1nc2c(F)cc([C@@H](C3CC3)N3C[C@@H](C(F)(F)F)NC3=O)cc2[nH]1)[C@@H](C)O[C@H](C)C(F)(F)F [Example 86, N-[(1R,2R)-1-[6-[(R)-Cyclopropyl-[(4S)-2-oxo-4-(trifluoromethyl)imidazolidin-1-yl]methyl]-4-fluoro-1H-benzimidazol-2-yl]-2-[(1R)-2,2,2-trifluoro-1-methyl-ethoxy]propyl]-4-methyl-1,2,5-oxadiazole-3-carboxamide]
Homo sapiens, Keratinocyte
  IC50: < 50 nM

## Cc1nonc1C(=O)N[C@H](c1nc2ccc(CN3C[C@@H](C(F)(F)F)NC3=O)c(F)c2[nH]1)[C@@H](C)O[C@H](C)C(F)(F)F [Example 92, N-[(1R,2R)-1-[7-Fluoro-6-[[(4S)-2-oxo-4-(trifluoromethyl)imidazolidin-1-yl]methyl]-1H-benzimidazol-2-yl]-2-[(1R)-2,2,2-trifluoro-1-methyl-ethoxy]propyl]-4-methyl-1,2,5-oxadiazole-3-carboxamide]
Homo sapiens, Keratinocyte
  IC50: < 50 nM

## CO[C@@H](CC(F)(F)F)[C@H](NC(=O)c1nonc1C1CC1)c1nc2cc(CN3C[C@@H](C(F)(F)F)NC3=O)ccc2[nH]1 (relative stereo) [Example 46, 4-Cyclopropyl-N-((1R*,2S*)-4,4,4-trifluoro-2-methoxy-1-(5-(((S)-2-oxo-4-(trifluoromethyl)imidazolidin-1-yl)methyl)-1H-benzo[d]imidazol-2-yl)butyl)-1,2,5-oxadiazole-3-carboxamide]
Homo sapiens, Keratinocyte
  IC50: < 50 nM

## [2H]C1([2H])NC(=O)N([C@@H](c2ccc3[nH]c([C@H](COC(C)(C)C(F)(F)F)NC(=O)c4nonc4C)nc3c2)C2CC2)CC1(F)F [Example 81, N-[(1R)-1-[5-[(R)-Cyclopropyl-(4,4-dideuterio-5,5-difluoro-2-oxo-hexahydropyrimidin-1-yl)methyl]-1H-benzimidazol-2-yl]-2-(2,2,2-trifluoro-1,1-dimethyl-ethoxy)ethyl]-4-methyl-1,2,5-oxadiazole-3-carboxamide]
Homo sapiens, Keratinocyte
  IC50: < 50 nM

## [2H]C1([2H])N([C@@H](c2ccc3nc([C@H](COC(C)(C)C(F)(F)F)NC(=O)c4nonc4C)[nH]c3c2)C2CC2)C(=O)NCC1(F)F [Example 77, N—((R)-1-(5-((R)-Cyclopropyl(5,5-difluoro-2-oxotetrahydropyrimidin-1(2H)-yl-6,6-d2)methyl)-1H-benzo[d]imidazol-2-yl)-2-((1,1,1-trifluoro-2-methylpropan-2-yl)oxy)ethyl)-4-methyl-1,2,5-oxadiazole-3-carboxamide]
Homo sapiens, Keratinocyte
  IC50: < 50 nM

## COC[C@H](c1ccc2[nH]c([C@@H](NC(=O)c3nonc3C3CC3)[C@@H](C)OC3CC3)nc2c1)N1C[C@@H](C(F)(F)F)NC1=O [Example 42, N-((1R,2R)-2-Cyclopropoxy-1-(5-((S)-2-methoxy-1-((S)-2-oxo-4-(trifluoromethyl)imidazolidin-1-yl)ethyl)-1H-benzo[d]imidazol-2-yl)propyl)-4-cyclopropyl-1,2,5-oxadiazole-3-carboxamide]
Homo sapiens, Keratinocyte
  IC50: < 50 nM

## CO[C@@H](CC(F)(F)F)[C@H](NC(=O)c1nonc1C)c1nc2cc(CN3C[C@@H](C(F)(F)F)NC3=O)ccc2[nH]1 (relative stereo) [Example 91, 4-Methyl-N-((1R*,2S*)-4,4,4-trifluoro-2-methoxy-1-(5-(((S)-2-oxo-4-(trifluoromethyl)imidazolidin-1-yl)methyl)-1H-benzo[d]imidazol-2-yl)butyl)-1,2,5-oxadiazole-3-carboxamide]
Homo sapiens, Keratinocyte
  IC50: < 50 nM

## [2H]C1([2H])N([C@@H](c2ccc3nc([C@H](COC(C)(C)C(F)(F)F)NC(=O)c4nonc4C4CC4)[nH]c3c2)C2CC2)C(=O)NCC1(F)F [Example 76, 4-Cyclopropyl-N—((R)-1-(5-((R)-cyclopropyl(5,5-difluoro-2-oxotetrahydropyrimidin-1(2H)-yl-6,6-d2)methyl)-1H-benzo[d]imidazol-2-yl)-2-((1,1,1-trifluoro-2-methylpropan-2-yl)oxy)ethyl)-1,2,5-oxadiazole-3-carboxamide]
Homo sapiens, Keratinocyte
  IC50: < 50 nM

## CO[C@H](CC(F)(F)F)[C@@H](NC(=O)c1nonc1C1CC1)c1nc2cc(CN3C[C@@H](C(F)(F)F)NC3=O)ccc2[nH]1 (single isomer, unassigned) [Example 45, 4-Cyclopropyl-N-((1S*,2R*)-4,4,4-trifluoro-2-methoxy--(5-(((S)-2-oxo-4-(trifluoromethyl)imidazolidin-1-yl)methyl)-1H-benzo[d]imidazol-2-yl)butyl)-1,2,5-oxadiazole-3-carboxamide]
Homo sapiens, Keratinocyte
  IC50: 50 to 100 nM

## CO[C@H](CC(F)(F)F)[C@H](NC(=O)c1nonc1C)c1nc2cc(CN3C[C@@H](C(F)(F)F)NC3=O)ccc2[nH]1 (relative stereo) [Example 90, 4-Methyl-N-((1R*,2R*)-4,4,4-trifluoro-2-methoxy-1-(5-(((S)-2-oxo-4-(trifluoromethyl)imidazolidin-1-yl)methyl)-1H-benzo[d]imidazol-2-yl)butyl)-1,2,5-oxadiazole-3-carboxamide]
Homo sapiens, Keratinocyte
  IC50: > 100 nM

## COCC(c1ccc2[nH]c([C@H](COC(C)(C)C(F)(F)F)NC(=O)c3nonc3C)nc2c1)N1C[C@@](C)(C(F)(F)F)NC1=O (single isomer, unassigned) [Example 63, N—((R)-1-(5-((R*)-2-Methoxy-1-((S)-4-methyl-2-oxo-4-(trifluoromethyl)imidazolidin-1-yl)ethyl)-1H-benzo[d]imidazol-2-yl)-2-((1,1,1-trifluoro-2-methylpropan-2-yl)oxy)ethyl)-4-methyl-1,2,5-oxadiazole-3-carboxamide]
Homo sapiens, Keratinocyte
  IC50: < 50 nM

## [2H]C1([2H])NC(=O)N([C@@H](c2ccc3[nH]c([C@H](COC(C)(C)C(F)(F)F)NC(=O)c4nonc4C4CC4)nc3c2)C2CC2)CC1(F)F [Example 82, 4-Cyclopropyl-N-[(1R)-1-[5-[(R)-cyclopropyl-(4,4-dideuterio-5,5-difluoro-2-oxo-hexahydropyrimidin-1-yl)methyl]-1H-benzimidazol-2-yl]-2-(2,2,2-trifluoro-1,1-dimethyl-ethoxy)ethyl]-1,2,5-oxadiazole-3-carboxamide]
Homo sapiens, Keratinocyte
  IC50: < 50 nM

## Cc1nonc1C(=O)N[C@H](c1nc2cc([C@@H](COC3CC3)N3CC(F)(F)CNC3=O)ccc2[nH]1)[C@@H](C)O[C@@H](C)C(F)(F)F [Example 66, N-((1R,2R)-1-(5-((S)-2-Cyclopropoxy-1-(5,5-difluoro-2-oxotetrahydropyrimidin-1(2H)-yl)ethyl)-1H-benzo[d]imidazol-2-yl)-2-(((S)-1,1,1-trifluoropropan-2-yl)oxy)propyl)-4-methyl-1,2,5-oxadiazole-3-carboxamide]
Homo sapiens, Keratinocyte
  IC50: < 50 nM
